Consider three molecules from patent US12234482B2, “Culture medium for expanding and culturing human liver progenitor cells and application thereof” (Guangzhou Institutes of Biomedicine and Health, Chinese …, priority 2019, dated 2025).

The structures appear in SMILES notation.

In test [1] the test system is HBs. The test is described as follows: Effects of signaling pathways regulated by small molecules on characteristics of HBs (AFP expression). In kind it is cell-based, human. As to conditions: FIG. 2D. The text has this: In addition to proliferation, the effects of the related signaling pathways on the characteristics of HBs were further analyzed.
Test [2] deals with HBs. The test is described as follows: Effects of signaling pathways regulated by small molecules on proliferation of HBs. The format is cell-based, human. As to conditions: small molecule regulating a signaling pathway; FIGS. 2B and 2C. The procedure:
Further, effects of the signaling pathways on the proliferation and differentiation of HBs were analyzed by regulating the related signaling pathways with small molecules.

For `CNC1CCC(N(Cc2cccc(-c3ccncc3)c2)C(=O)c2sc3ccccc3c2Cl)CC1` (stereo not drawn) [SAG], the “expression of AFP / maintenance of the characteristics of HBs” value (from here on “expression of AFP / maintenance … of HBs”) in test [1] is “promoted the expression of liver cell-related genes such as AFP”. Besides, in test [2], the “proliferation of HBs” value is on record as “promoted the proliferation of HBs”.
In the case of `Cc1cccc(-c2nn(C(=S)Nc3ccccc3)cc2-c2ccnc3ccccc23)n1` [A8301], the “expression of AFP / maintenance … of HBs” value in test [1] is given as “promoted the expression of liver cell-related genes such as AFP”. Further, the “proliferation of HBs” value in test [2] is given as “promoted the proliferation of HBs”.
For `Cc1c[nH]c(-c2cnc(NCCNc3ccc(C#N)cn3)nc2-c2ccc(Cl)cc2Cl)n1` [CHIR, CHIR99021], the “expression of AFP / maintenance … of HBs” value in test [1] is listed as “inhibited the expression of AFP”. In addition, the “proliferation of HBs” value in test [2] is listed as “promoted the proliferation of HBs”.
